Assay results published in ChEMBL document CHEMBL3779837, “Inhibiting the Inflammasome: A Chemical Perspective” (J Med Chem, 2016).

Experiments:
[1] = Half life in C57BL/6 mouse at 3 mg/kg, iv administered as single dose; type: ADME, organism-based; details: in vivo
[2] = Oral bioavailability in single dosed C57BL/6 mouse at 20 mg/kg; type: ADME, organism-based; details: in vivo
THP-1 = assay: Inhibition of caspase-1-mediated IL-1beta production in LPS/ATP induced human THP1 cells by ELISA analysis; type: functional, cell-based
[3] = target: NACHT, LRR and PYD domains-containing protein 3 (Mus musculus, UniProt Q8R4B8); assay: Inhibition of NLRP3 in LPS stimulated mouse BMDM cells after 15 mins followed by addition of ATP by ELISA analysis; type: cell-based
Caspase-1 = target: T1, Caspase-1 (Homo sapiens, UniProt P29466); assay: Inhibition of caspase-1 in LPS stimulated human PMBC cells after 2 hrs by ELISA analysis; type: cell-based
T1 sequence (P29466 whole entry): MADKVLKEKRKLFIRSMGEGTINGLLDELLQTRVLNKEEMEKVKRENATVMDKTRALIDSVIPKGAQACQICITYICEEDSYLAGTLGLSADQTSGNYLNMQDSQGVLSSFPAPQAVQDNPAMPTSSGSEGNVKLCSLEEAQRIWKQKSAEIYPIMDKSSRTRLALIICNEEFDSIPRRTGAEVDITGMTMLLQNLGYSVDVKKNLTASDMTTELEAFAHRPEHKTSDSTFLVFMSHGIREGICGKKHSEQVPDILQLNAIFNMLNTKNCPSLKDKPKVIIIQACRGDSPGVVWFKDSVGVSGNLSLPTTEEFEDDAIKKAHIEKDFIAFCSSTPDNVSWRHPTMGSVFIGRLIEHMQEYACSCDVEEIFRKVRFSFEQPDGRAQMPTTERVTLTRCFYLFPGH

Pannexin-1 = Pannexin-1 (Homo sapiens, UniProt Q96RD7); assay: Binding affinity to pannexin 1 channel (unknown origin)
[4] = Inhibition of organic anion transporter (unknown origin); parameters: species or system Homo sapiens
clinical = details: human, plasma, po, 500 mg
Toll-like receptor 4 = target: T2, Toll-like receptor 4 (Mus musculus, UniProt Q9QUK6); assay: Inhibition of TLR4 in LPS/INFgamma stimulated mouse peritoneal macrophages assessed as inhibition of IL1-beta after 20 hrs by ELISA analysis
T2 sequence (Q9QUK6 whole entry): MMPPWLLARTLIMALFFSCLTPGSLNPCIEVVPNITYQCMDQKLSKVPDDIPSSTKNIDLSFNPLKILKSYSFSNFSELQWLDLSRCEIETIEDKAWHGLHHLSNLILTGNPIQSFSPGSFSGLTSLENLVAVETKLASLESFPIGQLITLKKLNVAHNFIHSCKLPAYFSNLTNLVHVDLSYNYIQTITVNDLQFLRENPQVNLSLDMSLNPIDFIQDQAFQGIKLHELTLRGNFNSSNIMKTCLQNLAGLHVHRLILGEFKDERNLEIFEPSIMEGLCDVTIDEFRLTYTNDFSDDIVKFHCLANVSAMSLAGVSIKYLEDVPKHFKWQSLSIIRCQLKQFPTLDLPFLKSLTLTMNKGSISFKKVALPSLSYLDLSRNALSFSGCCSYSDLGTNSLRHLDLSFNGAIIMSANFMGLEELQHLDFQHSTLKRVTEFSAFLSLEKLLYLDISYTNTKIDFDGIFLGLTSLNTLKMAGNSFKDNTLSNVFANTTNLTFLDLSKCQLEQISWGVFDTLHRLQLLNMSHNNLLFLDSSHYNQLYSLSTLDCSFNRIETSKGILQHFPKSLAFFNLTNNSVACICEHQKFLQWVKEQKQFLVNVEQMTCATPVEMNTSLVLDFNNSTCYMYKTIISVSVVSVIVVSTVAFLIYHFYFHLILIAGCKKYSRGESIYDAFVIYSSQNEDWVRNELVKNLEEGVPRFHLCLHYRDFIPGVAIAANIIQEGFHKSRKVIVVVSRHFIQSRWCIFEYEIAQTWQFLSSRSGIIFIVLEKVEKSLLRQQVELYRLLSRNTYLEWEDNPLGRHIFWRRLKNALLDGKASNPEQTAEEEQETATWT

Sequence of Pannexin-1 (Q96RD7 whole entry): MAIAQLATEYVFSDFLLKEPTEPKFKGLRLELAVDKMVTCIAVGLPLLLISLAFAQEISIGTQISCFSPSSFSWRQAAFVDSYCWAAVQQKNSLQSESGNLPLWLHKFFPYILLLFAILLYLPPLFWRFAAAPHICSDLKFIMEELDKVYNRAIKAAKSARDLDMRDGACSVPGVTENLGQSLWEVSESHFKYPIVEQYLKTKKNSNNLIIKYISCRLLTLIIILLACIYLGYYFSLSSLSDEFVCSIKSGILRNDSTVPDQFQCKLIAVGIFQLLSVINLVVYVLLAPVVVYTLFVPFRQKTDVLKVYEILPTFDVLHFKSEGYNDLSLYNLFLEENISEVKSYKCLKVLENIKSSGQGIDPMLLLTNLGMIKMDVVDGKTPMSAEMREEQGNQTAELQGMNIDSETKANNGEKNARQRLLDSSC
Sequence of NACHT, LRR and PYD domains-containing protein 3 (Q8R4B8 whole entry, the tested form may be a part): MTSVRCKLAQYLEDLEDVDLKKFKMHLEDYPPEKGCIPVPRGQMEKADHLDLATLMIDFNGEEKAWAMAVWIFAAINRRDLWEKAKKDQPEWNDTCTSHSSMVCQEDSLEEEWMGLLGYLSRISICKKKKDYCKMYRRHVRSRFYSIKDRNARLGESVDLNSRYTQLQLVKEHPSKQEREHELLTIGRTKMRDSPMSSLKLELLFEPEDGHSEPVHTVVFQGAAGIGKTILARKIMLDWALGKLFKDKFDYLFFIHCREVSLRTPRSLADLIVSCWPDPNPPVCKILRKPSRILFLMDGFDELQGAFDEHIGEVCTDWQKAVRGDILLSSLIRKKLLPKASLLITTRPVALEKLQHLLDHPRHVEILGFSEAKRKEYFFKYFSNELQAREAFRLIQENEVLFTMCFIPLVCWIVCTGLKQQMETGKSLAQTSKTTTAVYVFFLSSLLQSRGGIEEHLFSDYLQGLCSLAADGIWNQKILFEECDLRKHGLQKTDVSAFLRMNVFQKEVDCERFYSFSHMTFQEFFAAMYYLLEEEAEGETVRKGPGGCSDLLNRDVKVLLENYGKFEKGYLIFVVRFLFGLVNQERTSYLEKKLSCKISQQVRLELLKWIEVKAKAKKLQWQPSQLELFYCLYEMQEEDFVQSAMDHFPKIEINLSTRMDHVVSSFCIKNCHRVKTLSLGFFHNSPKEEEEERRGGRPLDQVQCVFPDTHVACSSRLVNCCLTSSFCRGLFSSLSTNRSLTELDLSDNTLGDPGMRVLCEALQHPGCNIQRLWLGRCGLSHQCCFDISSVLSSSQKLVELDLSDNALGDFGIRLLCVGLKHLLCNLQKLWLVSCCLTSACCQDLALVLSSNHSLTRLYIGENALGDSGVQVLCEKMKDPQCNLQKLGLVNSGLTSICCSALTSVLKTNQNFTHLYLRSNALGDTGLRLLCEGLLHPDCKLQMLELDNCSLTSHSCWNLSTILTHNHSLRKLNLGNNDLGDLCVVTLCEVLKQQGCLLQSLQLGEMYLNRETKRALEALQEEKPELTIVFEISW

Compound: CC(C)(O)c1coc(S(=O)(=O)NC(=O)Nc2c3c(cc4c2CCC4)CCC3)c1
- half-life [1]: 180 min
- bioavailability [2]: 68%

Compound: O=C1C(Br)=C[C@@H](O)[C@H]2O[C@@H]12
- IC50 (THP-1): 200 nM

Compound: O=C1C(Br)=C[C@H](O)[C@@H]2O[C@H]12
- IC50 (THP-1): 280 nM

Compound: O=C1C(Br)=C[C@@H](O)[C@@H]2O[C@H]12
- IC50 (THP-1): 190 nM

Compound: O=[N+]([O-])/C=C/c1ccc2c(c1)OCO2
- IC50 [3]: 2000 nM

Compound: O=C1C(Br)=C[C@H](O)[C@H]2O[C@@H]12
- IC50 (THP-1): 170 nM

Compound: CCO[C@@H]1OC(=O)C[C@@H]1NC(=O)[C@@H]1CCCN2C(=O)CC[C@H](NC(=O)c3nccc4ccccc34)C(=O)N12 [PRALNACASAN]
- IC50 (Caspase-1): 420 nM

Compound: CCCN(CCC)S(=O)(=O)c1ccc(C(=O)O)cc1 [PROBENECID]
- IC50 (Pannexin-1): 150 µM
- IC50 [4]: < 100 µM
- Cmax at 48 h (clinical): 124 µM

Compound: CCOC(=O)C1=CCCC[C@H]1S(=O)(=O)Nc1ccc(F)cc1Cl [RESATORVID]
- IC50 (Toll-like receptor 4): 5.7 nM

Compound: O=C[C@H](CC(=O)O)NC(=O)[C@@H]1CCCN2C(=O)CC[C@H](NC(=O)c3nccc4ccccc34)C(=O)N12 [VRT-18858]
- IC50 (Caspase-1): 670 nM
